Experiment [1] deals with T1, E. coli GroEL/ES (Escherichia coli, UniProt P0A6F5).
T1 construct: made in house; host or cells: GroEL in NEB 5-alpha E. coli; GroES in E. coli BL21 (DE3)
The experiment in a line: GroEL/ES-mediated dMDH refolding assay. The format is biochemical. On the procedure: Evaluating compounds for inhibition in the GroEL/ES-mediated dMDH refolding assay. All compounds were evaluated for inhibiting E. coli GroEL/ES-mediated refolding of the denatured MDH reporter enzyme. Reagent preparation: For these assays, four primary reagent stocks were prepared: 1) GroEL/ES-dMDH binary complex stock; 2) ATP initiation stock; 3) EDTA quench stock; 4) MDH enzymatic assay stock. Denatured MDH (dMDH) was prepared by 2-fold dilution of MDH (5 mg/ml, soluble pig heart MDH from Roche, product #10127248001) with denaturant buffer (7 M guanidine-HCl, 200 mM Tris, pH 7.4, and 50 mM DTT). MDH was completely denatured by incubating at room temperature for >45 min. The binary complex solutions were prepared by slowly adding the dMDH stock to a stirring stock with GroEL and GroES in folding buffer (50 mM Tris-HCl, pH 7.4, 50 mM KCl, 10 mM MgC2, and 1 mM DTT). […] For the ATP initiation stock, ATP solid was diluted into folding buffer to a final concentration of 2.5 mM. Quench solution contained 600 mM EDTA (pH 8.0). The MDH enzymatic assay stock consisted of 20 mM sodium mesoxalate and 1.6 mM NADH in reaction buffer (50 mM Tris-HCl, pH 7.4, 50 mM KCl, and 1 mM DTT).
Assay Protocol: First, 30 μL aliquots of the GroEL/ES-dMDH binary complex stocks were dispensed into clear, 384-well polystyrene plates. […] The chaperonin-mediated refolding cycles were initiated by addition of 20 μL of ATP stock (reagent concentrations during refolding cycle: 50 nM GroEL, 60 nM GroES, 12 nM dMDH, 1 mM ATP, and compounds of 100 μM to 46 nM, 3-fold dilution series) and the refolding reactions were incubated at 37° C. […] Next, the assay was quenched by addition of 10 μL of the EDTA stock to give a final concentration of 100 mM in the wells. […] A340 nm measurements were recorded at 0.5 minutes (start point) and at successive time points until the amount of NADH consumed reached ˜90% (end point, generally between 20-35 minutes).
Evaluating analogs for inhibiting GroEL/ES-mediated substrate refolding functions. […] We first evaluated all test compounds in our standard GroEL/ES-mediated refolding assays that employ either malate dehydrogenase (MDH) or rhodanese (Rho) as the denatured substrate reporter enzymes. When denatured, these enzymes are efficiently folded by GroEL/ES in the absence of inhibitors, and thus act as reporters to determine the degree of inhibition against the bacterial chaperonin system. Inhibition was examined in the presence of these two orthogonal substrates in order to support that GroEL/ES inhibitors were on-target. To further support on-target effects against GroEL/ES, we counter-screened for inhibition of the native MDH and Rho enzymatic reporter reactions, where test compounds were added after the denatured MDH and Rho substrate enzymes were completely refolded by GroEL/ES.

For experiment [2], the target named is T2, native MDH (Sus scrofa, UniProt P00346).
T2 sequence (P00346 25-338): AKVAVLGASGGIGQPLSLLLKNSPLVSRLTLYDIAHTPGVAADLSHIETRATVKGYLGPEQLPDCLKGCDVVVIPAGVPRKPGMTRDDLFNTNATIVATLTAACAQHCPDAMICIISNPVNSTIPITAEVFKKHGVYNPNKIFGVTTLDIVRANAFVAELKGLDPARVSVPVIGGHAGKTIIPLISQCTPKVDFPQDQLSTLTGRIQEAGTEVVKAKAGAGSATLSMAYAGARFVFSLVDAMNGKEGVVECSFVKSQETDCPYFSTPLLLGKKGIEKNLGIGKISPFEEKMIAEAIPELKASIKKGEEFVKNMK
The experiment in a line: native MDH activity counter-screen in the presence of E. coli NfsB nitroreductase. Format: biochemical, pig. The note with it: with E. coli NfsB nitroreductase; read-out: Native MDH Activity w/NfsB IC50. On the procedure: Evaluating compounds for inhibition in the GroEL/ES-mediated dMDH refolding assay and native MDH activity counter-screen in the presence of E. coli NfsB nitroreductase. These assays were performed nearly identically to those mentioned above, but with a couple distinct modifications. […] The remainder of the assay was conducted as in our standard protocol where no NfsB nitroreductase was present. […] Results presented represent the averages of IC50 values obtained from at least four replicates in each assay.

In experiment [3] the target is T3, E. coli GroEL (Escherichia coli, UniProt P0A6F5).
T3 construct: made in house; host or cells: NEB 5-alpha E. coli
Kind of experiment: GroEL-mediated ATPase assay. Format: biochemical. As for the experimental part:
Evaluating compounds for inhibition in the GroEL-mediated ATPase assay. All compounds were evaluated for inhibiting E. coli GroEL-mediated ATPase activity as per our previously reported procedure although employing only GroEL in solution and not containing GroES or denatured MDH. Evaluating compounds for inhibition in the GroEL-mediated ATPase assay.
Reagent preparation: For this assay, four primary reagent solutions were prepared: 1) GroEL protein solution; 2) ATP initiation solution; 3) EDTA quench solution; 4) malachite green reporter solution. The GroEL protein solution consisted of 100 nM of GroEL in folding buffer (50 mM Tris-HCl, pH 7.4, 50 mM KCl, 10 mM MgCl2, and 1 mM DTT), which was prepared immediately prior to dispensing into the assay plates. For the ATP initiation solution, ATP solid was diluted into folding buffer to a final concentration of 2 mM. Quench solution contained 300 mM EDTA (pH 8.0). The malachite green reporter solution contained 0.034% w/v malachite green, 1.04% w/v ammonium molybdate, 1% Tween-20, and 1 M HCl dissolved in H2O.
Assay Protocol: First, 10 μL aliquots of the GroEL protein solution were dispensed into clear, flat-bottom 384-well polystyrene plates. […] After incubating for 45 minutes at 37° C., 10 μL of the EDTA quench solution was added to quench the reaction cycle. Then, 60 μL of the malachite green reporter solution was added and the plates were incubated at room temperature for 10 min. The absorbance of the malachite green-phosphate complex was measured at 600 nm using a Molecular Devices SpectraMax Plus384 microplate reader. A second set of baseline control plates were prepared analogously, but without GroEL protein solution, to correct for possible interference from compound absorbance or turbidity. […] Results presented represent the averages of IC50 values obtained from at least four replicates.
Evaluating analogs for inhibiting GroEL-mediated ATPase activity. […] Thus, we further tested analogs in a well-established GroEL ATPase assay that employed malachite green to monitor inorganic phosphate liberated as GroEL hydrolyzed ATP. Briefly, a solution of GroEL was incubated with test compounds (8-point, 3-fold dilution series) and the assay was initiated by addition of ATP. After incubating for 45 minutes, the ATPase reaction was quenched by the addition of EDTA. Malachite green was then added to the assay to bind and detect free phosphates in solution (absorbance detection at k=600 nm). If analogs inhibited ATPase activity, then there would be no free phosphates for malachite green to bind, leading to minimal absorbance at 600 nm.

Each structure is given as a SMILES string. Read-outs that look alike come from different tables or passages of the source. A value given as a limit tells only on which side of the number the result lay.

T3 sequence (P0A6F5 2-548): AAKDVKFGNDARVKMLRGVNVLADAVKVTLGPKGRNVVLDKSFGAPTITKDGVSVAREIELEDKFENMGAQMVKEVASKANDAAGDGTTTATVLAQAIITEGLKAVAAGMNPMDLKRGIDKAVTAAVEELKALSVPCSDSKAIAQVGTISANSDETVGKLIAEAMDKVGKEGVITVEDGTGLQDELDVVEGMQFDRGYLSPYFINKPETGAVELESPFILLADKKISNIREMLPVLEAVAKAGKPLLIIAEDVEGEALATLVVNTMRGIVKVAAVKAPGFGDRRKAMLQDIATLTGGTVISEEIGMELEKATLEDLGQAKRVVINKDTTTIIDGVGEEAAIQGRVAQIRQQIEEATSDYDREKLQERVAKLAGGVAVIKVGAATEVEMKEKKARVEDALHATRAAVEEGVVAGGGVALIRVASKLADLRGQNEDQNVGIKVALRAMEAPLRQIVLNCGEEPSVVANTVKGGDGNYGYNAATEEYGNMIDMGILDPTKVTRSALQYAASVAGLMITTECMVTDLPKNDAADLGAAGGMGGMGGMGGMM
T1 sequence (P0A6F5 2-548): as above

As for `CN(C)c1ccc(C(=O)N/N=C/c2ccc(O)c3ncccc23)cc1` [Compound 8, 4-(dimethylamino)-N′-((8-hydroxyquinolin-5-yl)methylene)benzohydrazide], the IC50 in experiment [1] is 27 µM; in experiment [2], above 56 µM; in experiment [3] it was above 250 µM.

For `O=C(N/N=C/c1ccc(O)c2ncccc12)c1cccc(Oc2ccccc2)c1` [Compound 11, N′-((8-hydroxyquinolin-5-yl)methylene)-3-phenoxybenzohydrazide], the IC50 was 13 µM in experiment [1], above 56 µM in experiment [2] and above 250 µM in experiment [3].

For the molecule `CCN(CC)S(=O)(=O)c1cccc(C(=O)N/N=C/c2ccc(O)c3ncccc23)c1` [Compound 12, N,N-diethyl-3-(2-((8-hydroxyquinolin-5-yl)methylene)hydrazine-1-carbonyl)benzenesulfonamide], the IC50 in experiment [1] is 19 µM; in experiment [2], above 56 µM; in experiment [3] it was above 250 µM.

Turning to `CCN(CC)S(=O)(=O)c1cccc(C(=O)N/N=C/c2ccc([N+](=O)[O-])o2)c1` [Compound 25, N,N-diethyl-3-(2-((5-nitrofuran-2-yl)methylene)hydrazine-1-carbonyl)benzenesulfonamide], the IC50 in experiment [1] was 90 µM; in experiment [2], above 56 µM; in experiment [3], above 250 µM.

On to `COc1ccc(C(=O)N/N=C/c2ccc(O)c3ccccc23)cc1` [Compound 29, N′-((4-hydroxynaphthalen-1-yl)methylene)-4-methoxybenzohydrazide], for which the values for the IC50 in experiment [1], in experiment [2] and in experiment [3] were above 100 µM, above 56 µM and above 250 µM, respectively.

`O=C(N/N=C/c1ccc(O)c2ncccc12)c1ccc(Cl)s1` [Compound 4, 5-chloro-N′-((8-hydroxyquinolin-5-yl)methylene)thiophene-2-carbohydrazide]: the IC50 was 9.6 µM in experiment [1], above 56 µM in experiment [2] and above 250 µM in experiment [3].

For `O=C(N/N=C/c1cccc2ncccc12)c1ccccc1` [Compound 32, N′-(quinolin-5-ylmethylene)benzohydrazide], the IC50 in experiment [1] was above 100 µM; in experiment [2], above 56 µM; in experiment [3], above 250 µM.

Consider `O=C(N/N=C/c1ccc([N+](=O)[O-])o1)c1ccc(NS(=O)(=O)c2cccs2)cc1` [Compound 26, N-(4-(2-((5-nitrofuran-2-yl)methylene)hydrazine-1-carbonyl)phenyl)thiophene-2-sulfonamide], for which the values for the IC50 in experiment [1], in experiment [2] and in experiment [3] were above 100 µM, above 56 µM and above 250 µM, respectively.

For the molecule `O=C(N/N=C/c1ccc(O)c2ccccc12)c1ccccc1` [Compound 30, N′-((4-hydroxynaphthalen-1-yl)methylene)benzohydrazide], the IC50 was above 100 µM in experiment [1], above 56 µM in experiment [2] and above 250 µM in experiment [3].

Turning to `O=C(N/N=C/c1ccc(O)c2ncccc12)c1ccc(NS(=O)(=O)c2cccs2)cc1` [Compound 13, N-(4-(2-((8-hydroxyquinolin-5-yl)methylene)hydrazine-1-carbonyl)phenyl)thiophene-2-sulfonamide], the results for the IC50 in experiment [1], in experiment [2] and in experiment [3] were 3.2 µM, above 56 µM and above 250 µM, respectively.

`O=C(N/N=C/c1cccc2ccccc12)c1ccccc1` [Compound 34, N′-(naphthalen-1-ylmethylene)benzohydrazide]: the IC50 in experiment [1] is above 100 µM; in experiment [2], above 56 µM; in experiment [3] it was above 250 µM.

In the case of `CCOc1ccc(S(=O)(=O)Nc2ccc(C(=O)N/N=C/c3ccc(O)c4ncccc34)cc2)cc1` [Compound 15, 4-ethoxy-N-(4-(2-((8-hydroxyquinolin-5-yl)methylene)hydrazine-1-carbonyl)phenyl)benzenesulfonamide], the values for the IC50 in experiment [1], in experiment [2] and in experiment [3] were 6 µM, above 56 µM and above 250 µM, respectively.

With `COc1ccc(C(=O)N/N=C/c2ccc(O)cc2)cc1` [Compound 35, N′-(4-hydroxybenzylidene)-4-methoxybenzohydrazide], the IC50 in experiment [1] is above 100 µM; in experiment [2], above 56 µM; in experiment [3], above 250 µM.

As to `O=C(N/N=C/c1ccc(O)c2ncccc12)c1cccs1` [Compound 3, N′-((8-hydroxyquinolin-5-yl)methylene)thiophene-2-carbohydrazide], the IC50 is 65 µM in experiment [1], above 56 µM in experiment [2] and above 250 µM in experiment [3].

Regarding `O=C(N/N=C/c1ccc(O)c2ncccc12)c1ccncc1` [Compound 6, N′-((8-hydroxyquinolin-5-yl)methylene)isonicotinohydrazide], the values for the IC50 in experiment [1], in experiment [2] and in experiment [3] were above 100 µM, above 56 µM and above 250 µM, respectively.

Regarding `O=Cc1ccc(O)c2ncccc12` [Compound 40, reference compound], the IC50 in experiment [1] (without NfsB nitroreductase, read-out: GroEL/ES-dMDH Refolding IC50) is above 100 µM; in experiment [2], above 56 µM; in experiment [3] (GroEL only, no GroES or dMDH, read-out: GroEL ATPase IC50) it was above 250 µM.

With `CCOc1ccc(S(=O)(=O)Nc2ccc(C(=O)N/N=C/c3ccc([N+](=O)[O-])o3)cc2)cc1` [Compound 28, 4-ethoxy-N-(4-(2-((5-nitrofuran-2-yl)methylene)hydrazine-1-carbonyl)phenyl)benzenesulfonamide], the results for the IC50 in experiment [1], in experiment [2] and in experiment [3] were 36 µM, above 56 µM and above 250 µM, respectively.

For the origin of these results see patent US20220009914A1, “Analogs of Nitrofuran Antibiotics to Combat Resistance” (The Trustees of Indiana University, priority 2020, published 2022).
